According to US20110293720A1, “PROGESTIN-CONTAINING DRUG DELIVERY SYSTEM” (BAYER SCHERING PHARMA AKTIENGESELLSCHAFT, priority 2008, published 2011):

Assay: Particle size distribution (d50/d70/d90, volume distribution, e.g. laser diffraction)
Assay type: physicochemical
Conditions: micronized active ingredient before coating
Text: When used herein, the term “d90 particle size” is intended to mean that the particle size distribution is so that at least 90% of the particles have a particle diameter of less than the specified value, calculated from the volume distribution curve under the presumption of spherical particles. In a similar way, the term “d50 particle size” is intended to mean that the particle size distribution is so that at least 50% of the particles have a particle diameter of less than the specified value, calculated from the volume distribution curve under the presumption of spherical particles.
Therefore, it is important to note that whenever the terms “particle size”, “particle size distribution”, “particle diameter”, “d90”, “d50”, etc., are used herein it should be understood that the specific values or ranges used in connection therewith are always meant to be determined from the volume distribution curve under the presumption of spherical particles. The particle size distribution may be determined by various techniques, e.g. laser diffraction, and will be known to the person skilled in the art. […] The particle size distribution of the particles comprising the progestin and the protective agent, when incorporated in the wafer, may be determined by dissolving the film forming matrix, separation of the protected particles, and drying the protected particles. […]

d50: 2.2 μm
d90: 4.8 μm
Compound: C[C@]12CCC(=O)C=C1[C@@H]1C[C@@H]1[C@H]1[C@@H]3[C@@H]4C[C@@H]4[C@@]4(CCC(=O)O4)[C@@]3(C)CC[C@@H]12 [drospirenone]
